Reference: publication PMC6149664, “Synthesis and In Vitro Antimycobacterial Activity of Novel N-Arylpiperazines Containing an Ethane-1,2-diyl Connecting Chain” (Molecules : A Journal of Synthetic Chemistry and Natural …, 2017)

Columns and labels:
[1] = Isocratic RP-HPLC lipophilicity (k, log k, extrapolated log kw, slope S), MeOH/water mobile phases; type: physicochemical; conditions: for log kw (RP-HPLC): extrapolated to 100% water from log k vs ϕM (MeOH); for S, slope (RP-HPLC): slope of regression log k vs ϕM, alternative measure of lipophilicity
Text: Octadecyl-functionalized silica gel was used as a stationary phase in the RP-HPLC evaluation of 8a–h. A gradient of two solvents at different volume ratios modulated retention properties of a stationary phase. Liquid binary mixtures of methanol (MeOH) with water were employed as mobile phases in a present isocratic RP-HPLC method. The MeOH organic modifier was preferred because of making a reversed-phase chromatographic system closer to the octan-1-ol/water partitioning one in terms of sensitivity to H-bond donor properties of investigated compounds [39, 40]. The modifier was applied in different volume concentrations that varied from 60% to 85% (v/v).
The chromatographic HPLC-Diode Array Detection apparatus for the determination of capacity (retention) factor k (log k) values was the LC Agilent Infinity System (Agilent Technologies, Santa Clara, CA, USA) equipped with a Infinity 1260 gradient pump with a degasser, a 1260 HiPals automatic injector, a column thermostat 1290, a photo-diode array detector Infinity 1290 (all the equipments were obtained by Agilent Technologies) and personal computer with the Agilent ChemStation software (Agilent Technologies) for the registration of values and calibration procedures. The chromatographic column Eclipse plus RP C18, 150 × 4.6 mm i.d., a 5 μm particle size (Agilent Technologies), was used and thermostated at 35 °C.
The analyses were performed at pressure ranged from 7 MPa to 15 MPa. The detection wavelength was set to 260 nm, injection sample volume was 5 μL with a flow rate of 1.0 mL/min in all RP-HPLC analyses.
LC-MS Methanol (J. T. Baker Chemicals Co., Phillipsburg, NJ, USA) and HPLC-quality water (Sigma-Aldrich, Darmstadt, Germany) were used for a preparation of mobile phases. Water was firstly deionized and purified by the Millipore Simplicity 185 Ultrapure water purification system (Millipore, Billerica, MA, USA).
Methanol (MeOH)/water mobile phases with a various volume ratio of the organic modifier and water (60:40, 70:30, 80:20 and 85:15, respectively; v/v) were chosen. A concentration of all analyzed compounds 8a–h was c = 0.25 mg/mL. An queous solution of potassium nitrate (c = 0.1 M) was used for the determination of dead time t0 = 1.295 min. The capacity (retention) factor k values (Table 1) were calculated by Equation (6) as follows:k = (tr – t0)/t0(6) where the tr and t0 parameters were the retention times of a solute (tr) and unretained compound (potassium nitrate; t0), respectively. The observed retention (tr) and dead (t0) times were means of three independent determinations.
The log kw values, i.e., the logarithms of extrapolated capacity (retention) factors for 100% water in the isocratic RP-HPLC, were determined from intercepts of linear plots between the log k and ϕM (a volume fraction of an organic modifier in the isocratic elution RP-HPLC) according to Equation (7): log k = log kw – S × ϕM(7) where the S parameter represented the slope of a regression curve, which was related to the solvent strength of a pure organic solvent.

[2] = test system: human monocytic leukemia THP-1 cell line; experiment: In vitro cytotoxicity screening, LDH assay; conditions: 24 h
[3] = mobile phase MeOH/water 60:40 (v/v)
[4] = mobile phase MeOH/water 70:30 (v/v)
[5] = mobile phase MeOH/water 80:20 (v/v)
[6] = mobile phase MeOH/water 85:15 (v/v)

Structure (SMILES)	capacity factor k (RP-HPLC) ([1]; MeOH/water 60:40 (v/v))	capacity factor k (RP-HPLC) ([1]; MeOH/water 70:30 (v/v))	capacity factor k (RP-HPLC) ([1]; MeOH/water 80:20 (v/v))	capacity factor k (RP-HPLC) ([1]; MeOH/water 85:15 (v/v))	log kw (RP-HPLC) [1]	log k (RP-HPLC) [1, 3]	log k (RP-HPLC) [1, 4]	log k (RP-HPLC) [1, 5]	log k (RP-HPLC) [1, 6]	S, slope (RP-HPLC) [1]	Effect on proliferation of the THP-1 cells compared to a control [2]	Relative survival rate of the THP-1 cells ([2]; highest tested concentration of 30 μM) [%]
COC(=O)Nc1cccc(C(O)CN2CCN(c3ccccc3F)CC2)c1.Cl (centres unmarked) [8a, 1-(2-Hydroxy-2-{3-[(methoxycarbonyl)amino]phenyl}ethyl)-4-(2-fluorophenyl)piperazin-1-ium chloride]	4.091	1.770	0.925	0.699	2.430	0.612	0.248	−0.034	−0.156	3.0678	increased proliferation	–
CCOC(=O)Nc1cccc(C(O)CN2CCN(c3ccccc3F)CC2)c1.Cl (centres unmarked) [8b, 1-(2-{3-[(Ethoxycarbonyl)amino]phenyl}-2-hydroxyethyl)-4-(2-fluorophenyl)piperazin-1-ium chloride]	4.951	2.778	1.245	0.879	2.546	0.695	0.444	0.095	−0.056	3.0529	–	–
CCCOC(=O)Nc1cccc(C(O)CN2CCN(c3ccccc3F)CC2)c1.Cl (centres unmarked) [8c, 1-(2-Hydroxy-2-{3-[(propoxycarbonyl)amino]phenyl}ethyl)-4-(2-fluorophenyl)piperazin-1-ium chloride]	5.898	3.561	1.466	1.023	2.679	0.771	0.552	0.166	0.010	3.1244	–	–
CCCCOC(=O)Nc1cccc(C(O)CN2CCN(c3ccccc3F)CC2)c1.Cl (centres unmarked) [8d, 1-(2-{3-[(Butoxycarbonyl)amino]phenyl}-2-hydroxyethyl)-4-(2-fluorophenyl)piperazin-1-ium chloride]	6.738	5.039	1.769	1.185	2.796	0.829	0.702	0.245	0.074	3.1641	–	79
COC(=O)Nc1ccc(C(O)CN2CCN(c3ccccc3F)CC2)cc1.Cl (centres unmarked) [8e, 1-(2-Hydroxy-2-{4-[(methoxycarbonyl)amino]phenyl}ethyl)-4-(2-fluorophenyl)piperazin-1-ium chloride]	3.098	1.456	0.822	0.637	2.113	0.491	0.163	−0.085	−0.196	2.7386	increased proliferation	–
CCOC(=O)Nc1ccc(C(O)CN2CCN(c3ccccc3F)CC2)cc1.Cl (centres unmarked) [8f, 1-(2-{4-[(Ethoxycarbonyl)amino]phenyl}-2-hydroxyethyl)-4-(2-fluorophenyl)piperazin-1-ium chloride]	4.524	2.053	1.023	0.757	2.512	0.656	0.312	0.010	−0.121	3.1156	–	–
CCCOC(=O)Nc1ccc(C(O)CN2CCN(c3ccccc3F)CC2)cc1.Cl (centres unmarked) [8g, 1-(2-Hydroxy-2-{4-[(propoxycarbonyl)amino]phenyl}ethyl)-4-(2-fluorophenyl)piperazin-1-ium chloride]	5.394	3.108	1.342	0.956	2.600	0.732	0.492	0.128	−0.020	3.0739	–	–
CCCCOC(=O)Nc1ccc(C(O)CN2CCN(c3ccccc3F)CC2)cc1.Cl (centres unmarked) [8h, 1-(2-{4-[(Butoxycarbonyl)amino]phenyl}-2-hydroxyethyl)-4-(2-fluorophenyl)piperazin-1-ium chloride]	7.598	4.627	1.736	1.173	2.930	0.881	0.665	0.240	0.069	3.3441	–	–
